Measurements reported in patent publication US20050245508A1, “Treatment of malignant gliomas with TGF-beta inhibitors” (SCIOS, Inc., priority 2003, published 2005).

Experiments:
[1] = Solubility in drinking water; type: physicochemical
LN-308 glioma cells = test: Flow cytometric cell cycle analysis; type: cell-based, human; settings: 0.01, 0.1 or 1 μM, 48 h, data not shown
Experimental: The adherent glioma cells were detached nonenzymatically using cell dissociation solution (Sigma). Cell cycle analysis was performed by using fixed and permeabilized glioma cells (70% ethanol). RNA was digested with RNase A (Life Technologies, Inc.). DNA was stained with propidium iodide (50 μg/ml).

[2] = tested on: SMA-560 intracranial experimental glioma; test: Syngeneic SMA-560 intracranial glioma in VM/Dk mice; type: in vivo
Experimental: FIG. 4. […] A. VM/Dk mice received an intracranial injection of 5×10^3 SMA-560 cells. […] B. The animals were treated as in A, but were sacrificed on day 10 to obtain splenocytes. IFN-γ release at 24 h was assessed by Elispot. Data are expressed as cytokine-producing cells per 10^6 effector cells. C. The splenocytes were stimulated with IL-2 for 10 days to generate LAK cells.
VM/Dk mice were purchased from the TSE Research Center (Berkshire, UK). Mice of 6-12 weeks of age were used in all experiments. The experiments were performed according to the German animal protection law. Groups of 7-8 mice were anesthesized before all intracranial procedures and placed in a stereotaxic fixation device (Stoelting, Wood Dale, Ill.). A burr hole was drilled in the skull 2 mm lateral to the bregma. The needle of a Hamilton syringe (Hamilton, Darmstadt, Germany) was introduced to a depth of 3 mm. […] The mice were observed daily and, in the survival experiments, sacrified when developing neurological symptoms, or sacrificed as indicated in the other experiments.

LN-308 targets = test: 51Cr release lysis assay, PBL or T cells precultured with irradiated glioma cells; type: cell-based, human; settings: preexposure 1 μM during coculture with irradiated glioma cells, 4 h 51Cr release, FIG. 3A
Experimental: FIG. 3. Modulation of allogeneic anti-glioma immune responses by Compound No. 79 involves TGF-β antagonism. A. The lytic activity against LN-308 targets of PBL (squares) or purified T cells (triangles) preincubated with irradiated LN-308 cells in the absence (open symbols) or presence (filled symbols) of Compound No. 79 (1 μM) was determined in ^51Cr release assays. B-D. PBL were cultured in the absence (left) or presence (right) of irradiated LN-308 cells for 5 days. The cultures contained Compound No. 79 (1 μM) (filled bars) or not (open bars). Subsequently these effector cells were cocultured for 24 h with fresh non-irradiated LN-308 cells in the absence of Compound No. 79. The release of IFN-γ (B), TNF-α (C) or IL-10 (D) was assessed by Elispot assay. Data are expressed as cytokine-producing cells per 5×10^5 effector cells (n=3, *p<0.05, **p<0.01, t-test, effect of Compound No. 79). […]
HLA-A2-mismatched PBL or T cells (107/25 cm2 flask) were cocultured with 106 irradiated (30 Gy) glioma cells for 5 days. […] The maximum 51Cr release was determined by addition of NP40 (1%). After 4 h the supernatants were transferred to a Luma-PlateTM-96 (Packard, Dreieich, Germany) and measured. The percentage of 51Cr release was calculated as follows: 100×([experimental release−spontaneous release]/[maximum release−spontaneous release]).

[3] = tested on: splenocytes / LAK cells against SMA-560; test: Ex vivo immune effector assays, splenocytes of glioma-bearing mice; type: in vivo, VM/Dk mice
Experimental: FIG. 4. Compound No. 79 inhibits the growth of syngeneic SMA-560 experimental gliomas in vivo and promotes immune activation. A. VM/Dk mice received an intracranial injection of 5×10^3 SMA-560 cells. Three days later treatment with Compound No. 79 was initiated, and survival was monitored. B. The animals were treated as in A, but were sacrificed on day 10 to obtain splenocytes. IFN-γ release at 24 h was assessed by Elispot. Data are expressed as cytokine-producing cells per 10^6 effector cells. C. The splenocytes were stimulated with IL-2 for 10 days to generate LAK cells. Their lytic activity was measured by ^51Cr release using SMA-560 as target cells (vehicle, open squares; Compound No. 79, filled squares) (*p<0.05, t-test).
IL-10, TNF-α and IFN-γ release by immune effector cells was assessed by Elispot assay in a multiscreen-HA 96 well plate (Millipore, Eschborn, Germany), coated with corresponding anti-human capture antibodies (Becton Dickinson). Briefly, 5×10^4 glioma cells were cocultured for 24 h with 105, 2.5×105 or 5×105 HLA-A2-mismatched, prestimulated (5 days) PBL. The cells were removed using double-distilled water, and captured cytokines were visualized using biotinylated antibodies and streptavidin-alkaline phosphatase (Becton Dickinson). Spots were counted on an Elispot reader system (AID, Straβberg, Germany). […]

## Fc1ccc(Cl)cc1-c1nc(Nc2ccncc2)c2nccnc2n1 [Compound No. 79]
[1]
  solubility: relatively poor solubility
LN-308 glioma cells
  cell cycle arrest: no specific type of cell cycle arrest
[2]; 1 mg/ml in drinking water from day 3, data not shown
  development of neurological symptoms: delayed
[2]; 1 mg/ml in drinking water from day 3, control 0%
  survival rate at 30 days: 29%
[2]; 1 mg/ml in drinking water from day 3, vehicle 18
  median survival: 23 days
[2]; 1 mg/ml in drinking water from day 3, vehicle 18.6±2.1, p=0.004
  mean survival: 25.1 ± 6.5 days
[2]; drinking water 1 mg/ml
  dose-limiting toxicity: No dose-limiting toxicity has been reached
LN-308 targets
  lytic activity of HLA-A2-mismatched PBL or purified T cells: significantly enhanced
[3]; Elispot, day 7 after initiation of treatment, control 1 of 5, FIG. 4B
  animals with increase over background of IFN-γ release by splenocytes: 3 of 5
[3]; splenocytes stimulated with IL-2 for 10 days, 51Cr release, FIG. 4C
  lytic activity of LAK cells against SMA-560 targets: enhanced lytic activity
